The subject of assay [1] is memory deficits after icv injections of STZ. The settings on record: chronic treatment; cited from earlier work.
For assay [2], the system named is rats injected icv with Aβ(1-40). The settings on record: cited from earlier work.
Another assay has as its system ChE. In words: In vivo ChE inhibition assay. Also on record: species or system cynomolgus monkeys. As to conditions: acute or chronic administration, amounts up to 7.0 mg/kg ladostigil base. As for the experimental part:
The level of ChE inhibition can be determined by routine methods, including those detailed below.
In vivo measurement of ChE inhibition is similar to that of in vivo measurement of MAO inhibition, except that cynomolgus monkeys are treated, and tissues are examined for brain, plasma and erythrocytes ChE inhibition.

The test system of a further assay is MAO-B. Kind of assay: In vivo MAO inhibition assay (MAO-B). Details: species or system Rats and mice. As to the method:
(§1) The level of MAO (MAO-A and MAO-B) inhibition can be determined by routine methods, including those detailed below.
(§2) Rats and mice are treated by subcutaneous (s.c.) or intraperitoneal (i.p.) injection or oral (p.o.) administration of the compound to be tested. Animals are decapitated approximately 2 hours after drug treatment and MAO activity is determined in the brain, intestine, and/or liver. MAO activity is expressed as percentage of enzyme activity relative to a control group administered with vehicle only. Effective doses producing 50% MAO inhibition (ED50 values) are calculated from inhibition curves.
(§3) Repeated treatment by ladostigil (e.g. daily doses for 7 days) can be used to calculate inhibition achieved through chronic administration.

The subject of another assay is MAO-A. In words: In vivo MAO inhibition assay (MAO-A). Details: species or system Rats and mice. As to the method:
as §1, §2, §3

The mark [3] stands for this setting: acute administration, amounts up to 20.4 mg/kg of ladostigil base.
[4] abbreviates: chronic administration, amounts up to 4.5 mg/kg of ladostigil base.

Take `Oc1ccc(C=Cc2cc(O)cc(O)c2)cc1` [resveratrol]: in assay [1], the “Memory deficits 3-8 weeks after icv STZ” value is “can be reduced”.

On to `COc1ccc2[nH]cc(CCNC(C)=O)c2c1` [melatonin], for which the “Memory deficits 3-8 weeks after icv STZ” value in assay [1] is “can be reduced”.

For the compound `CC12CC3CC(C)(C1)CC(N)(C3)C2` [memantine], in assay [2], the “Activation of microglia and astrocytes and memory deficits after icv Aβ(1-40)” value is “reduced the activation of microglia and astrocytes and the memory deficits”.

In the case of “R(+)-6-(N-methyl,N-ethyl-carbamoyloxy)-N′-propargyl-1-aminoindan [ladostigil tartrate]”, the ChE inhibition entry in the assay with ChE was “no more than 30%”. The “MAO inhibition (MAO-B)” value in the assay on MAO-B (setting [3]) and in the assay on MAO-B (setting [4]) was “no more than 25%” throughout. Besides, the “MAO inhibition (MAO-A)” value with MAO-A (setting [3]) and in the assay with MAO-A (setting [4]) was “no more than 25%” in each case.

(Values after patent publication US8420696B2, “Use of low-dose ladostigil for neuroprotection” (priority 2005, dated 2013).)
